Reference: patent US20170232083A1, “METHODS OF DIAGNOSIS AND TREATMENT OF CELIAC DISEASE IN CHILDREN” (priority 2014, published 2017)

Test system: PBMC (polyclonal gluten-specific T cells) of paediatric and adult CD patients
Assay: IFN-γ ELISpot of PBMC after 3 day oral wheat challenge (SFU, % of maximal peptide response, dominance scores, EC50; Examples 5-6)
Assay type: cell-based, human
Conditions: for IFN-γ ELISpot response: after oral wheat challenge; for Cross-reactive T cell response: following wheat challenge
[1] = patient A, 11-17 yrs, cut-off 10 SFU
[2] = patient D, max peptide 30.5 SFU
[3] = patient E, H, 11-17 yrs, cut-off 10 SFU
[4] = patient F, 11-17 yrs, cut-off 10 SFU
[5] = patient G, 11-17 yrs, cut-off 10 SFU
[6] = patient H (HLA-DQ2.5 homozygote), 3-5yrs, cut-off 10 SFU
[7] = patient H, 11-17 yrs, cut-off 10 SFU
[8] = patient ID not given, 11-17 yrs, cut-off 10 SFU
[9] = patient N, 3-5yrs, cut-off 10 SFU
[10] = patient P, 11-17 yrs, cut-off 21.6 SFU
[11] = patient Q, 11-17 yrs, cut-off 10 SFU
[12] = patient U, H, 11-17 yrs, cut-off 10 SFU
[13] = patient V, 6-10 yrs, cut-off 10 SFU
[14] = patient Y, 6-10 yrs, cut-off 10 SFU
[15] = patient eleven, 6-10 yrs, cut-off 10 SFU
[16] = patient five, max peptide 48 SFU
[17] = patient four, 3-5yrs, cut-off 10 SFU
[18] = patient four, max peptide 44 SFU
[19] = patient seven, 6-10 yrs, cut-off 10.5 SFU
[20] = patient ten, 3-5yrs, cut-off 10 SFU
[21] = patient ten, max peptide 14.5 SFU
[22] = patient three, 6-10 yrs, cut-off 10.5 SFU
[23] = patient twelve, 11-17 yrs, cut-off 10 SFU
[24] = patient two, 3-5yrs, cut-off 10 SFU
[25] = patient two, max peptide 60 SFU
[26] = patient ID not given, max peptide 95 SFU
[27] = patient eleven, max peptide 57 SFU

QPFPQPEQPIPVQ
IFN-γ ELISpot response [1]: 5 SFU
Significant response as percentage of maximal peptide SFU [2]: ′′′ (41-70% = ′′′)
IFN-γ ELISpot response [3]: 76 SFU
Significant response as percentage of maximal peptide SFU (patient E, max peptide 224 SFU): ′′ (21-40% = ′′)
IFN-γ ELISpot response [4]: 103 SFU
Significant response as percentage of maximal peptide SFU (patient F, max peptide 178 SFU): ′′′ (41-70% = ′′′)
IFN-γ ELISpot response [5]: 3 SFU
IFN-γ ELISpot response [6]: 29 SFU
IFN-γ ELISpot response [7]: 10 SFU
Significant response as percentage of maximal peptide SFU (patient H, max peptide 17 SFU): ′′′ (41-70% = ′′′)
IFN-γ ELISpot response [8]: 95 SFU
Significant response as percentage of maximal peptide SFU (patient J, max peptide 196 SFU): ′′′ (41-70% = ′′′)
Significant response as percentage of maximal peptide SFU (patient K, max peptide 53 SFU): ′ (11-20% = ′)
Significant response as percentage of maximal peptide SFU (patient M, max peptide 48 SFU): ′′′ (41-70% = ′′′)
IFN-γ ELISpot response [9]: 2 SFU
IFN-γ ELISpot response [10]: 42 SFU
Significant response as percentage of maximal peptide SFU (patient P, max peptide 64 SFU): ′′′ (41-70% = ′′′)
IFN-γ ELISpot response [11]: 51 SFU
Significant response as percentage of maximal peptide SFU (patient Q, max peptide 97 SFU): ′′′ (41-70% = ′′′)
IFN-γ ELISpot response [12]: 27 SFU
Significant response as percentage of maximal peptide SFU (patient U, max peptide 81 SFU): ′′ (21-40% = ′′)
IFN-γ ELISpot response [13]: 27 SFU
Significant response as percentage of maximal peptide SFU (patient V, max peptide 35 SFU): + (>70% = +)
IFN-γ ELISpot response [14]: 9 SFU
IFN-γ ELISpot response [15]: 9 SFU
Significant response as percentage of maximal peptide SFU [16]: + (>70% = +)
IFN-γ ELISpot response [17]: 10 SFU
Significant response as percentage of maximal peptide SFU [18]: ′′ (21-40% = ′′)
IFN-γ ELISpot response [19]: 9 SFU
IFN-γ ELISpot response [20]: 11 SFU
Significant response as percentage of maximal peptide SFU [21]: + (>70% = +)
IFN-γ ELISpot response [22]: 126 SFU
IFN-γ ELISpot response [23]: 20 SFU
IFN-γ ELISpot response [24]: 53 SFU
Significant response as percentage of maximal peptide SFU [25]: + (>70% = +)

PEQPQPFPEQPVPQQP
Cross-reactive T cell response (subject A, 11-17yrs): 3 SFU
Cross-reactive T cell response (subject D, 11-17yrs): 3 SFU
Cross-reactive T cell response (subject E, 11-17yrs): 4 SFU
Cross-reactive T cell response (subject F, 11-17yrs): 6 SFU
Cross-reactive T cell response (subject G, 11-17yrs): 1 SFU
Cross-reactive T cell response (subject H): 0 SFU
Cross-reactive T cell response (subject I (3-5yrs/6-10yrs part)): 0 SFU
Cross-reactive T cell response (subject J (3-5yrs/6-10yrs part)): 7 SFU
Cross-reactive T cell response (subject K (3-5yrs/6-10yrs part)): 4 SFU
Cross-reactive T cell response (subject P, 11-17yrs): 8 SFU
Cross-reactive T cell response (subject Q, 11-17yrs): 6 SFU
Cross-reactive T cell response (subject T, 11-17yrs): 5 SFU
Cross-reactive T cell response (subject U, 11-17yrs): 1 SFU
Cross-reactive T cell response (subject V (3-5yrs/6-10yrs part)): 3 SFU
Cross-reactive T cell response (subject W (3-5yrs/6-10yrs part)): 4 SFU
Cross-reactive T cell response (subject Y (3-5yrs/6-10yrs part)): 2 SFU
Cross-reactive T cell response (subject five (3-5yrs/6-10yrs part)): 0 SFU
Cross-reactive T cell response (subject nine, 11-17yrs): 0 SFU
Cross-reactive T cell response (subject seven (3-5yrs/6-10yrs part)): 4 SFU
Cross-reactive T cell response (subject six (3-5yrs/6-10yrs part)): 2 SFU
Significant response as a percentage of maximal peptide SFU (subject ten): + (>70% = +)
Cross-reactive T cell response (subject ten (3-5yrs/6-10yrs part)): 11 SFU
Cross-reactive T cell response (subject two (3-5yrs/6-10yrs part)): 3 SFU

LQPFPQPQLPYPQP
IFN-γ ELISpot response [1]: 1 SFU
Significant response as percentage of maximal peptide SFU [2]: ′′ (21-40% = ′′)
IFN-γ ELISpot response [3]: 86 SFU
Significant response as percentage of maximal peptide SFU (patient E, max peptide 224 SFU): ′′ (21-40% = ′′)
IFN-γ ELISpot response [4]: 64 SFU
Significant response as percentage of maximal peptide SFU (patient F, max peptide 178 SFU): ′′ (21-40% = ′′)
IFN-γ ELISpot response [5]: 3 SFU
IFN-γ ELISpot response [6]: 22 SFU
IFN-γ ELISpot response [7]: 14 SFU
Significant response as percentage of maximal peptide SFU (patient H, max peptide 17 SFU): + (>70% = +)
IFN-γ ELISpot response [8]: 51 SFU
Significant response as percentage of maximal peptide SFU [26]: ′′′ (41-70% = ′′′)
Significant response as percentage of maximal peptide SFU (patient II, max peptide 15 SFU): + (>70% = +)
Significant response as percentage of maximal peptide SFU (patient J, max peptide 196 SFU): ′′′ (41-70% = ′′′)
Significant response as percentage of maximal peptide SFU (patient K, max peptide 53 SFU): ′ (11-20% = ′)
Significant response as percentage of maximal peptide SFU (patient M, max peptide 48 SFU): ′′′ (41-70% = ′′′)
IFN-γ ELISpot response [9]: 4 SFU
IFN-γ ELISpot response [10]: 25 SFU
Significant response as percentage of maximal peptide SFU (patient P, max peptide 64 SFU): ′′ (21-40% = ′′)
IFN-γ ELISpot response [11]: 38 SFU
Significant response as percentage of maximal peptide SFU (patient Q, max peptide 97 SFU): ′′ (21-40% = ′′)
IFN-γ ELISpot response [12]: 35 SFU
IFN-γ ELISpot response [13]: 10 SFU
Significant response as percentage of maximal peptide SFU (patient V, max peptide 35 SFU): ′′ (21-40% = ′′)
IFN-γ ELISpot response [14]: 14 SFU
Significant response as percentage of maximal peptide SFU (patient Y, max peptide 16 SFU): + (>70% = +)
IFN-γ ELISpot response [15]: 29 SFU
Significant response as percentage of maximal peptide SFU [27]: ′′′ (41-70% = ′′′)
Significant response as percentage of maximal peptide SFU [16]: ′′′ (41-70% = ′′′)
IFN-γ ELISpot response [17]: 17 SFU
Significant response as percentage of maximal peptide SFU [18]: ′′ (21-40% = ′′)
IFN-γ ELISpot response [19]: 5 SFU
IFN-γ ELISpot response [20]: 5 SFU
IFN-γ ELISpot response [22]: 93 SFU
IFN-γ ELISpot response [23]: 10 SFU
IFN-γ ELISpot response [24]: 21 SFU
Significant response as percentage of maximal peptide SFU [25]: ′′ (21-40% = ′′)

PEQPFPEQPEQPF
IFN-γ ELISpot response [1]: 2 SFU
IFN-γ ELISpot response [3]: 14 SFU
Significant response as percentage of maximal peptide SFU (patient E, max peptide 224 SFU): (6-10% = ^)
IFN-γ ELISpot response [4]: 2 SFU
IFN-γ ELISpot response [5]: 2 SFU
IFN-γ ELISpot response [6]: 4 SFU
IFN-γ ELISpot response [7]: 9 SFU
IFN-γ ELISpot response [8]: 15 SFU
Significant response as percentage of maximal peptide SFU [26]: ′ (11-20% = ′)
Significant response as percentage of maximal peptide SFU (patient J, max peptide 196 SFU): ′ (11-20% = ′)
Significant response as percentage of maximal peptide SFU (patient K, max peptide 53 SFU): ′′ (21-40% = ′′)
IFN-γ ELISpot response [9]: 0 SFU
IFN-γ ELISpot response [10]: 10 SFU
IFN-γ ELISpot response [11]: 11 SFU
Significant response as percentage of maximal peptide SFU (patient Q, max peptide 97 SFU): ′ (11-20% = ′)
IFN-γ ELISpot response [12]: 5 SFU
IFN-γ ELISpot response [13]: 3 SFU
IFN-γ ELISpot response [14]: 2 SFU
IFN-γ ELISpot response [15]: 12 SFU
Significant response as percentage of maximal peptide SFU [27]: ′′ (21-40% = ′′)
IFN-γ ELISpot response [17]: 4 SFU
Significant response as percentage of maximal peptide SFU (patient nine, max peptide 10 SFU): + (>70% = +)
IFN-γ ELISpot response [19]: 5 SFU
IFN-γ ELISpot response [20]: 11 SFU
Significant response as percentage of maximal peptide SFU [21]: + (>70% = +)
IFN-γ ELISpot response [22]: 24 SFU
IFN-γ ELISpot response [23]: 1 SFU
IFN-γ ELISpot response [24]: 9 SFU

LQPRPQPELPYPQP
IFN-γ ELISpot response [1]: 6 SFU
Significant response as percentage of maximal peptide SFU [2]: ′′′ (41-70% = ′′′)
IFN-γ ELISpot response [3]: 142 SFU
Significant response as percentage of maximal peptide SFU (patient E, max peptide 224 SFU): ′′′ (41-70% = ′′′)
IFN-γ ELISpot response [4]: 178 SFU
Significant response as percentage of maximal peptide SFU (patient F, max peptide 178 SFU): + (>70% = +)
IFN-γ ELISpot response [5]: 4 SFU
IFN-γ ELISpot response [6]: 45 SFU
IFN-γ ELISpot response [7]: 10 SFU
Significant response as percentage of maximal peptide SFU (patient H, max peptide 17 SFU): ′′′ (41-70% = ′′′)
IFN-γ ELISpot response [8]: 89 SFU
Significant response as percentage of maximal peptide SFU [26]: + (>70% = +)
Significant response as percentage of maximal peptide SFU (patient II, max peptide 15 SFU): ′′′ (41-70% = ′′′)
Significant response as percentage of maximal peptide SFU (patient J, max peptide 196 SFU): + (>70% = +)
Significant response as percentage of maximal peptide SFU (patient K, max peptide 53 SFU): ′′′ (41-70% = ′′′)
Significant response as percentage of maximal peptide SFU (patient L, max peptide 11 SFU): + (>70% = +)
Significant response as percentage of maximal peptide SFU (patient M, max peptide 48 SFU): + (>70% = +)
IFN-γ ELISpot response [9]: 7 SFU
IFN-γ ELISpot response [10]: 64 SFU
Significant response as percentage of maximal peptide SFU (patient P, max peptide 64 SFU): + (>70% = +)
IFN-γ ELISpot response [11]: 97 SFU
Significant response as percentage of maximal peptide SFU (patient Q, max peptide 97 SFU): + (>70% = +)
IFN-γ ELISpot response [12]: 81 SFU
Significant response as percentage of maximal peptide SFU (patient U, max peptide 81 SFU): + (>70% = +)
IFN-γ ELISpot response [13]: 30 SFU
Significant response as percentage of maximal peptide SFU (patient V, max peptide 35 SFU): + (>70% = +)
IFN-γ ELISpot response [14]: 11 SFU
Significant response as percentage of maximal peptide SFU (patient Y, max peptide 16 SFU): ′′′ (41-70% = ′′′)
IFN-γ ELISpot response [15]: 38 SFU
Significant response as percentage of maximal peptide SFU [27]: ′′′ (41-70% = ′′′)
Significant response as percentage of maximal peptide SFU [16]: + (>70% = +)
IFN-γ ELISpot response [17]: 24 SFU
Significant response as percentage of maximal peptide SFU [18]: ′′′ (41-70% = ′′′)
IFN-γ ELISpot response [19]: 6 SFU
IFN-γ ELISpot response [20]: 6 SFU
IFN-γ ELISpot response [22]: 146 SFU
IFN-γ ELISpot response [23]: 18 SFU
IFN-γ ELISpot response [24]: 36 SFU
Significant response as percentage of maximal peptide SFU [25]: ′′′ (41-70% = ′′′)
